The record followed here is patent US9388147B2 (Receptos, Inc., priority 2009, dated 2016).

Assay [1] concerns the target T1, S1P3 (Homo sapiens, UniProt Q99500).
T1 construct: host or cells: NFAT-bla HEK293T
Put plainly: Specificity over other S1P receptors: S1P3-Gα15 NFAT-bla HEK293T reporter assay. It counts as cell-based. The note with it: without Forskolin, read-out: S1P3 agonist value (EC50).

Assay [2] addresses T2, S1P5 (Homo sapiens, UniProt Q9H228).
T2 construct: Tango fusion (own knowledge: protease cleavage site plus GAL4-VP16 transcription factor at the receptor's C-terminus); host or cells: U2OS (Tango -bla)
Briefly: Specificity over other S1P receptors: S1P5-bla TANGO U2OS assay. Format: cell-based. The note with it: read-out: S1P5 agonist value (EC50).

For assay [3], the system named is CD4 or CD8 positive T cells. Put plainly: Lymphopenia in mice. Format: in vivo. The note with it: female C57BL6 mice, 1 mg/kg oral gavage, area under the effect curve over 24 h. The procedure:
In mice: Female C57BL6 mice (Simonsen Laboratories, Gilroy Calif.) were housed in an ALAAC accredited facility and the research was approved by the facilities Institutional Animal Care and Use Committee (IACUC). The animals were acclimated to the laboratory for at least 5 days prior to initiation of experiments. Mice (n=3/compound/time-point) were dosed by oral gavage with 1 mg/kg compound formulated in a vehicle consisting of 5% DMSO/5% Tween 20 and 90% 0.1N HCl. Control mice were dosed PO with the vehicle. Terminal whole blood samples were collected from isoflurane anesthetized mice by cardiac puncture into EDTA. Whole blood was incubated with rat anti-mouse CD16/CD32 (Mouse BD Fc Block, #553141), PE-Rat anti-mouse CD45R/B220 (BD #553089), APC-Cy7-Rat anti-mouse CD8a (BD #557654), and Alexa Fluor647-Rat anti-mouse CD4 (BD #557681) for 30 min on ice. Red blood cells were lysed using BD Pharm Lyse Lysing buffer (#555899) and white blood cells were analyzed by FACS. Lymphopenia was expressed as the % of white blood cells that were CD4 or CD8 positive T cells. The overall lymphopenia response over 24 h was estimated by calculating the area under the effect curve (AUEC) using the linear trapezoidal rule.

Assay [4] has as its system peripheral T-cell counts. Briefly: Lymphopenia in rats, 3-5 day multiple dose regimen. Format: in vivo, rat. The note with it: female rats, oral, 24 h after final dose of a 3-5 day multiple dose regimen. The protocol:
In rats: Female rats (Simonsen Laboratories, Gilroy Calif.) were housed in an ALAAC accredited facility and the research was approved by the facilities Institutional Animal Care and Use Committee (IACUC). The animals were acclimated to the laboratory for at least 5 days prior to initiation of experiments. Rats (n=3/compound/time-point) were dosed by oral gavage with 1 mg/kg compound formulated in a vehicle consisting of 5% DMS0/5% Tween 20 and 90% 0.1N HCL. Control rats were dosed PO with the vehicle. Whole blood was collected from isoflurane anesthetized rats via the retro-orbital sinus and terminal samples were collected by cardiac puncture into EDTA. Whole blood was incubated with mouse anti-rat CD32 (BD #550271), PE-mouse anti-rat CD45R/B220 (BD #554881), PECy5-mouse anti-rat CD4 (BD #554839), and APC-mouse anti-rat CD8a (eBioscience #17-0084) for 30 minutes on ice. Red blood cells were lysed using BD Pharm Lyse Lysing buffer (#555899) and white blood cells were analyzed with a BD FACSArray. Lymphopenia was expressed as the % of white blood cells that were CD4 or CD8 positive T cells. The overall lymphopenia response over 24 h was estimated by calculating the area under the effect curve (AUEC) using the linear trapezoidal rule.
The compounds listed in Table 6 were formulated as suspensions in a vehicle consisting of 0.5% carboxymethyl cellulose (Acros Organics) in purified water (pH adjusted to ˜2.2 with hydrochloric acid). The same formulation was used in the rat lymphopenia and toxicology studies described below. The concentration of each compound in suspension was verified to be within ±10% of the target concentration by HPLC-UV.
Prior to the conduct of toxicology studies, the effect of three to five daily doses of each compound on peripheral T-cell counts of female rats was determined (see lymphopenia measurements in rats above). In these lymphopenia studies, blood samples were collected onto EDTA at intervals after the final study dose. The collection times were not identical for each study, however, all studies included a sample collected 24 hours after the final dose. The lymphopenia data was used as a biomarker to select equally pharmacologically active doses for the subsequent toxicology study. […] The high dose in the toxicology study represented a ≧20-fold increment over the low dose.
The dose producing a 10% increase in lung to body weight ratio was interpolated from a plot of dose versus lung to body weight. The lymphopenia response was measured 24 hours following the final dose of a 3-5 day multiple dose regimen.

Where a name gives a salt, the structure may show the parent alone.

T2 sequence (Q9H228 whole entry, the tested form may be a part): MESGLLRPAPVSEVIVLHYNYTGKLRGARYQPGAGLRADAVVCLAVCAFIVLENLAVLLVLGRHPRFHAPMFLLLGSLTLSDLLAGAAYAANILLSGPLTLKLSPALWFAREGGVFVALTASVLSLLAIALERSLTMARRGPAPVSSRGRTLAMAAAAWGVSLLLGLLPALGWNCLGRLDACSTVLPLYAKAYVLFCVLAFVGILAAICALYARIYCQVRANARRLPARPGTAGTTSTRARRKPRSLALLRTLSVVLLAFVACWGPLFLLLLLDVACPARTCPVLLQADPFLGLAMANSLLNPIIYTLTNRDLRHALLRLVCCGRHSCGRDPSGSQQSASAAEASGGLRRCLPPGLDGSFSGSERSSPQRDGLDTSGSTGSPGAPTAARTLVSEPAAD
T1 sequence (Q99500 whole entry): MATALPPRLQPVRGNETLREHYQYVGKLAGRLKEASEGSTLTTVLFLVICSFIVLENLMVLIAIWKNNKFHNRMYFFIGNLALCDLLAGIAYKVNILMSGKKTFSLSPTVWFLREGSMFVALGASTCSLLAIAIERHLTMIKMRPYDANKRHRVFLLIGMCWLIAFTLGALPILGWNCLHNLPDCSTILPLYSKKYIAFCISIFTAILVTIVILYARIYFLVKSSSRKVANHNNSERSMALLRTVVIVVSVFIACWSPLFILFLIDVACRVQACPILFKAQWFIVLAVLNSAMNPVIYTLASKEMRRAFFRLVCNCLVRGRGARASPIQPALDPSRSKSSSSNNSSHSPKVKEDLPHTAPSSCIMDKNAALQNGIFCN

For orientation: EC50 means the concentration that produces a half-maximal response. Take `CC(C)Oc1ccc(-c2nc(-c3cccc4c3CC[C@H]4N)no2)cc1C#N` [Compound 49, (R)-5-(3-(1-amino-2,3-dihydro-1H-inden-4-yl)-1,2,4-oxadiazol-5-yl)-2-isopropoxy-benzonitrile hydrochloride]: the figures for the EC50 in assay [1] and in assay [2] were 8940 nM and 20.1 nM, respectively. Besides, the “Mouse Lymphopenia (AUEC)” value in assay [3] is reported as 1762. Besides, the “Dose Producing 50% lymphopenia” value in assay [4] came out at 0.10 mg/kg.

In the case of `CC(C)Oc1ccc(-c2nc(-c3cccc4c3CC[C@@H]4NCC(=O)N(C)C)no2)cc1C#N` [Compound 91, (S)-2-(4-(5-(3-cyano-4-isopropoxyphenyl)-1,2,4-oxadiazol-3-yl)-2,3-dihydro-1H-inden-1-ylamino)-N,N-dimethylacetamide], the EC50 in assay [1] is greater than 10000 nM; in assay [2] it was 15.2 nM. Moreover, the “Mouse Lymphopenia (AUEC)” value in assay [3] was 1408. The “Dose Producing 50% lymphopenia” value in assay [4] is 0.30 mg/kg.

As to `CC(C)Oc1ccc(-c2nc(-c3cccc4c3CC[C@H]4NCCO)no2)cc1C#N` [Compound 85, (R)-5-(3-(1-(2-hydroxyethylamino)-2,3-dihydro-1H-inden-4-yl)-1,2,4-oxadiazol-5-yl)-2-isopropoxybenzonitrile], the EC50 in assay [1] was found to be 4500 nM; in assay [2], 15.1 nM. Also, the “Mouse Lymphopenia (AUEC)” value in assay [3] is 1425. Also, in assay [4], the “Dose Producing 50% lymphopenia” value came to 0.15 mg/kg.

As to `CC(C)Oc1ccc(-c2nc(-c3cccc4c3CC[C@@H]4N)no2)cc1C#N` [Compound 50, (S)-5-(3-(1-amino-2,3-dihydro-1H-inden-4-yl)-1,2,4-oxadiazol-5-yl)-2-isopropoxy-benzonitrile], the EC50 came to 8910 nM in assay [1] and 44.5 nM in assay [2]. Besides, in assay [3], the “Mouse Lymphopenia (AUEC)” value was 1632. Further, in assay [4], the “Dose Producing 50% lymphopenia” value came out at 0.10 mg/kg.

In the case of `CC(C)Oc1ccc(-c2nc(-c3cccc4c3CC[C@H]4NCC(=O)N(C)C)no2)cc1C#N` [Compound 90, (R)-2-(4-(5-(3-cyano-4-isopropoxyphenyl)-1,2,4-oxadiazol-3-yl)-2,3-dihydro-1H-inden-1-ylamino)-N,N-dimethylacetamide hydrochloride], the concentration giving a half-maximal response (EC50) came to 8820 nM in assay [1] and 12.9 nM in assay [2]. For the same compound, the “Mouse Lymphopenia (AUEC)” value in assay [3] stood at 1486. Moreover, the “Dose Producing 50% lymphopenia” value in assay [4] was 0.40 mg/kg.
